Columns and labels:
[1] = biological target: T1, Proteasome subunit beta type-8 (Homo sapiens, UniProt P28062); assay: Inhibition of proteasome subunit beta-5i in human Raji cells using BODIPY-NC005 by fluorescent densitometry; assay type: cell-based
T1 sequence (P28062 whole entry): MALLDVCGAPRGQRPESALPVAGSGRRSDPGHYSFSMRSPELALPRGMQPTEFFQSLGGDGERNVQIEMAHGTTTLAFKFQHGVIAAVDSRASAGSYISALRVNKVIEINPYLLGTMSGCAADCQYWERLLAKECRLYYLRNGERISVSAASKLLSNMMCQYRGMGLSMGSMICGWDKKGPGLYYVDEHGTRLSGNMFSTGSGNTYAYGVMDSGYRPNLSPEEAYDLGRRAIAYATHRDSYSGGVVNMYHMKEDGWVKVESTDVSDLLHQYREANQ

[2] = Inhibition of 20s proteasome subunit beta-5c in human Raji cells using BODIPY-NC005 by fluorescent densitometry; assay type: cell-based

Compound | IC50 [1] | IC50 [2]
COc1ccc(C[C@H](NC(=O)[C@H](C)NC(=O)CN2CCOCC2)C(=O)N[C@@H](Cc2ccc(-c3ccccc3)cc2)C(=O)[C@@]2(C)CO2)cc1 | 2 nM | 20 nM
COc1ccc(C[C@H](NC(=O)[C@@H](C)NC(=O)C2=C(C)c3ccccc3C2)C(=O)N[C@@H](Cc2ccccc2)C(=O)[C@@]2(C)CO2)cc1 | 3 nM | 157 nM
COc1ccc(C[C@H](NC(=O)[C@H](C)NC(=O)CN2CCOCC2)C(=O)N[C@@H](Cc2ccc3ccccc3c2)C(=O)[C@@]2(C)CO2)cc1 | 3.1 nM | 97 nM
CC1=C(C(=O)N[C@H](C)C(=O)N[C@@H](Cc2c[nH]c3ccccc23)C(=O)N[C@H](/C=C/S(C)(=O)=O)CC2CCCCC2)Cc2ccccc21 | 632 nM | 62000 nM
COc1ccc(C[C@H](NC(=O)[C@H](C)NC(=O)C2=C(C)c3ccccc3C2)C(=O)N[C@@H](Cc2ccccc2)C(=O)[C@@]2(C)CO2)cc1 | 5 nM | 6 nM
C[C@@H](NC(=O)CN1CCOCC1)C(=O)N[C@@H](Cc1c[nH]c2ccccc12)C(=O)N[C@@H](Cc1ccc(-c2ccccc2)cc1)C(=O)[C@@]1(C)CO1 | 2.1 nM | 14 nM
COc1ccc(C[C@H](NC(=O)[C@H](C)NC(=O)CN2CCOCC2)C(=O)N[C@H](/C=C/S(C)(=O)=O)Cc2ccccc2)cc1 | 392 nM | 14000 nM
COc1ccc(C[C@H](NC(=O)[C@H](C)NC(=O)C2=C(C)c3ccccc3C2)C(=O)N[C@@H](Cc2ccc(-c3ccccc3)cc2)C(=O)[C@@]2(C)CO2)cc1 | 1.4 nM | 12.6 nM
COc1ccc(C[C@H](NC(=O)[C@@H](C)NC(=O)C2=C(C)c3ccccc3C2)C(=O)N[C@@H](Cc2ccc(-c3ccccc3)cc2)C(=O)[C@@]2(C)CO2)cc1 | 3.3 nM | 43 nM
CC1=C(C(=O)N[C@H](C)C(=O)N[C@@H](Cc2c[nH]c3ccccc23)C(=O)N[C@@H](Cc2ccc(-c3ccccc3)cc2)C(=O)[C@@]2(C)CO2)Cc2ccccc21 | 5 nM | 79 nM
COc1ccc(C[C@H](NC(=O)[C@H](C)NC(=O)C2=C(C)c3ccccc3C2)C(=O)N[C@@H](CC2CCCCC2)C(=O)[C@@]2(C)CO2)cc1 | 3 nM | 14.5 nM

More lines, now with the values ahead:

IC50 [1] | IC50 [2] | Compound
1.2 nM | 9.9 nM | COc1ccc(C[C@H](NC(=O)[C@@H](C)NC(=O)CN2CCOCC2)C(=O)N[C@@H](Cc2ccc(-c3ccccc3)cc2)C(=O)[C@@]2(C)CO2)cc1
13 nM | 104 nM | C[C@@H](NC(=O)CN1CCOCC1)C(=O)N[C@@H](Cc1c[nH]c2ccccc12)C(=O)N[C@@H](Cc1ccccc1)C(=O)[C@@]1(C)CO1
> 50000 nM | > 50000 nM | COc1ccc(C[C@H](NC(=O)[C@H](C)NC(=O)CN2CCOCC2)C(=O)N[C@@H](CC23CC4CC(CC(C4)C2)C3)C(=O)[C@@]2(C)CO2)cc1
5700 nM | > 100000 nM | COc1ccc(C[C@H](NC(=O)[C@H](C)NC(=O)CN2CCOCC2)C(=O)N[C@H](/C=C/S(C)(=O)=O)CC2CCCCC2)cc1
244 nM | 1800 nM | COc1ccc(C[C@H](NC(=O)[C@H](C)NC(=O)CN2CCOCC2)C(=O)N[C@@H](Cc2cccc3ccccc23)C(=O)[C@@]2(C)CO2)cc1
 | 116 nM | COc1ccc(C[C@H](NC(=O)[C@@H](C)NC(=O)CN2CCOCC2)C(=O)N[C@@H](Cc2ccccc2)C(=O)[C@@]2(C)CO2)cc1
